Key:
[1] = Cytotoxicity by LDH release; type: cell-based, human; settings: human, Caco-2 cells, 24 h, LDH release, no FBS
Experimental: (§1) We evaluated 12 selected compounds for cytotoxicity to Caco-2 (human colonic carcinoma) cells as described previously (Xu et al., [2015]). The Caco-2 cells were obtained from the American Type Culture Collection (ATCC Rockville, MD) and maintained in minimal essential medium (MEM) supplemented with 20% fetal bovine serum (FBS), 1% non-essential amino acid (NEAA; Life Technologies, NY) and with 1 mM sodium pyruvate at 37°C in a humidified 5% CO2 incubator. A 96-well tissue culture plate was seeded with approximately 1.4 × 10^5 cells per well and incubated for 24 h at 37°C in an incubator until a confluent monolayer formed. It was necessary to assess the dose dependent cytotoxicity effect of DMSO as compounds were diluted in DMSO therefore, we determined the cytotoxic effect of varying concentrations of the DMSO vehicle control (1, 2, and 5%) in Caco-2 cells containing 150 μL of media (without FBS) incubated at 24 h. There was no significant difference among the varying DMSO concentrations and their cytotoxicity values. Therefore, we used 1% DMSO in duplicate wells along with other appropriate controls for cytotoxicity experiment.
(§2) It is likely that the compounds can bind to serum proteins (FBS) present in the media and thus influence the true cytotoxic effect of the compounds; therefore, we performed the cytotoxicity assay in absence of FBS. The cytotoxicity assay was performed according to manufacturer instructions (Pierce TM; Thermo Scientific, IL) and the percentage of cytotoxicity was calculated by measuring the release of lactate dehydrogenase (LDH) enzyme from the treated cells. Briefly, ~1.4 × 10^5 cells were grown in a 96-well tissue culture plate containing 150 μL of growth medium. After three washes with medium without supplementation, 1 μL (200 μM) of compound was added to duplicate wells and incubated for 24 h at 37°C in a humidified, 5% CO2 incubator. Subsequently, 50 μL of supernatants were collected for measuring LDH release and the degree of cytotoxicity was determined according to the manufacturer instructions.
(§3) Three independent experiments were conducted in duplicate samples in each experiment and the average cytotoxicity values were plotted.

[2] = system: Caco-2 (human colonic carcinoma) cells; experiment: Cytotoxicity by LDH release; type: cell-based; settings: Caco-2 cells, 200 μM; for Cytotoxicity (%): 24 h, LDH release, no FBS
Experimental: as §1, §2, §3

In the case of `O=S(=O)(Nc1cccc(C(F)(F)F)c1)c1ccc(Br)cc1` [Comp 1], the cytotoxicity at 24 h, 200 µM [1] is reported as 30.3% and the “Relative cytotoxicity among the 12 compounds” value [2] is reported as “highest cytotoxicity”.

For `COc1ccc(CN2CCN(c3ccc(F)cc3)CC2)cc1C` [Comp 2], the cytotoxicity at 24 h, 200 µM [1] was at most 10% and the “Cytotoxicity (%)” value [2] was 6.9%.

In the case of `CN(C)c1ccc(CN2CCN(c3ccccc3Cl)CC2)cc1` [Comp 3], the cytotoxicity at 24 h, 200 µM [1] is reported as 11.3%.

For `Clc1ccc(N2CCN(Cc3ccsc3)CC2)cc1` [Comp 4], the “Cytotoxicity (%)” value [2] was 4.6%.

In the case of `Cc1ccc(N2CCN(C/C=C/c3ccccc3)CC2)cc1` [Comp 5], the cytotoxicity at 24 h, 200 µM [1] is reported as at most 10% and the “Cytotoxicity (%)” value [2] is reported as 6.5%.

For `O=c1c(Cl)c(Cl)cnn1-c1ccccc1Cl` [Comp 7], the cytotoxicity at 24 h, 200 µM [1] was 28%.

Work on `Cc1c(C(C)NCc2cccc(OC3CCCC3)c2)cnn1-c1ccccc1` (centres unmarked) [Comp 10] yielded a cytotoxicity at 24 h, 200 µM [1] of 27.8%.

In the case of `COc1ccc(CNCc2ccc(Cl)s2)cc1OCC(O)CN1CCCC1` (centres unmarked) [Comp 12], the “Relative cytotoxicity among the 12 compounds” value [2] is reported as “least cytotoxic” and the “Cytotoxicity (%)” value [2] is reported as 0%.

With `CN(Cc1cccc2cnccc12)CC1CCCN(CCc2ccc(F)cc2)C1` (centres unmarked) [Comp 13] the “Relative cytotoxicity among the 12 compounds” value [2] was “least cytotoxic” and the “Cytotoxicity (%)” value [2] was 0%.

Compound `CN(CC(O)COc1ccccc1CNC1(c2ccccc2)CC1)C1CCCCC1` (centres unmarked) [Comp 17] has a cytotoxicity at 24 h, 200 µM [1] of 16.6%.

With `CN(Cc1ccccc1)CC1CCCN(CCc2ccc(F)cc2)C1` (centres unmarked) [Comp 18] the cytotoxicity at 24 h, 200 µM [1] was 8.8%.

In the case of `CC(=O)Nc1ccc(CN(C)CC2CCCN(CCc3cccc(C(F)(F)F)c3)C2)cc1` (centres unmarked) [Comp 22], the cytotoxicity at 24 h, 200 µM [1] is reported as 12.1%.

Reference: publication PMC4821856, “Novel Anti-Campylobacter Compounds Identified Using High Throughput Screening of a Pre-selected Enriched Small Molecules Library” (Frontiers in Microbiology, 2016)
